In patent US20110105389A1 (priority 2009, published 2011):
Like-named read-outs stand apart in the source and are kept apart here.

Experiments:
[1] = target: T1, human ghrelin receptor (GRLN, growth hormone secretagogue receptor, hGHS-R1a) (Homo sapiens, UniProt Q92847); assay: Competitive radioligand binding assay (ghrelin receptor), Method B1
T1 construct: purchased PerkinElmer BioSignal #RBHGHSM, lot#1887; host or cells: HEK-293 cells, stably transfected (membranes)
Description: Multiscreen Harvest plates-GF/C (Millipore, #MAHFC1H60) • 4. […] Bottom seal (Millipore, #MATAH0P00) • 7. […] Binding Buffer: 25 mM Hepes (pH 7.4), 1 mM CaCl2, 5 mM MgCl2. 2.5 mM EDTA, 0.4% BSA
Competition experiments were performed in a 300 μl filtration assay format. • 1. 220 μL of membranes diluted in binding buffer • 2. 40 μL of compound diluted in binding buffer • 3.
Compounds were provided frozen on dry ice at a stock concentration of 10 mM diluted in 100% DMSO and stored at −80° C. until the day of testing. On the test day, compounds were allowed to thaw at rt overnight and then diluted in assay buffer according to the desired test concentrations. Under these conditions, the maximal final DMSO concentration in the assay was 0.1%.
Plates were sealed with TopSeal-A, vortexed gently and incubated at rt for 30 min. The reaction was arrested by filtering samples through Multiscreen Harvest plates (pre-soaked in 0.5% polyethyleneimine) using a Tomtec Harvester, washed 9 times with 500 μL of cold 50 mM Tris-HCl (pH 7.4, 4° C.), and then plates were air-dried in a fumehood for 30 min. A bottom seal was applied to the plates prior to the addition of 25 μL of MicroScint-0 to each well. Plates were than sealed with TopSeal-A and counted for 30 sec per well on a TopCount Microplate Scintillation and Luminescence Counter (PerkinElmer) using a count delay of 60 sec. Results were expressed as counts per minute (cpm).
Data were analyzed by GraphPad Prism (GraphPad Software, San Diego, Calif.) using a variable slope non-linear regression analysis. […] Dmax values were calculated using the following formula: […]

[2] = target: T2, ghrelin receptor (HEK-GHSR1 stable cells) (Homo sapiens, UniProt Q92847); assay: Ghrelin receptor inverse agonist assay (HTRF IP-one), Method B4; type: cell-based; settings: inverse agonist at the ghrelin receptor, Method B4
T2 construct: expressed in transfected cells
Text: B4. Ghrelin Receptor Inverse Agonist Assay […]
In addition, the following method can be utilized to assay for inverse agonist activity. (Thomsen, W.; et al. Curr. Opin. Biotechnol. 2005, 16, 655-665; Tozawa-Takahashi F; et al., 11th SBS Annual Conference. September 2005, Geneva; Trinquet, E.; Fink, M.; Bazin, H.; et al. Anal. Biochem. 2006, 358, 126-135; Bergsdorf, C.; Kropp-Goerkis, C.; Kaehler, I.; Ketscher, L.; Boerner, U.; Parczyk, K.; Bader, B. Assay Drug Dev. Technol. 2008, 6, 39-53.)
• 1. Remove culture medium from the plate by inversion. • 2. Add 70 μl of compound/well. • 3. Incubate 30 min at 37° C. • 4. Stop the reaction by adding 15 μl of lysis buffer/well. • 5. Add 15 μl of d2/well. • 6. Add 15 μl of Anti-IP1 cryptate/well. • 7. Incubate 1 h at room temp on an orbital shaker at 100 RPM. • 8. Read the fluorescence in a plate reader (Tecan GeniosPro or similar)
The above sequence was performed using the HTRF IP-one kit (CisBio cat#62P1APEC). For the simultaneous assay of multiple test compounds, 96-well plates can be utilized in this assay (white plate with flat-bottom well, Falcon #353296). These were seeded overnight with 100 000 of HEK-GHSR1 stable cells/well. • Wells A1 and A2 of each plate are used as negative control (wells without d2). Compounds are typically tested in replicate at the following concentrations:
Compounds are stored at 10 mM in 100% DMSO.
1st dilution 1/10 in 100% DMSO (1 mM final concentration).
2nd dilution 1/10 in H2O (0.1 mM final concentration).
Other dilutions are performed in a 96-well plate in stimulation buffer.
The results for representative compounds of the invention are provided in the Examples.

[3] = target: T3, GHS-R1a receptor (HEK293 cells expressing GHS-R1a receptor) (Homo sapiens, UniProt Q92847); assay: Fluorescence functional assay (ghrelin receptor), Method B2, agonist and antagonist mode; type: cell-based; settings: functional activity as an antagonist at the ghrelin receptor, Methods B2 and B3
T3 construct: host or cells: HEK293
Description: • 1. ImageTrak Epi-Fluorescence system (Perkin-Elmer) • 2. MultiDrop TiterTek • 3. CO2 incubators: 5% CO2, humidified, 37° C.
• 1. Hanks' BSS without phenol red (Life Technologies) • 2. Hepes buffer • 3. Probenecid (Sigma) • 4. […] Falcon cell culture 96-well black/clear bottom plates • 6. 0.05% trypsin-EDTA • 7. Cells: HEK293 cells expressing GHS-R1a receptor (Perkin-Elmer BioSignal) were grown in DMEM (Dulbecco's Modified Eagles Medium) with 10% FBS, 1% sodium pyruvate, 1% NEAA and 400 μg/mL geneticin • 8. […] [D-Lys^3]-GHRP-6 (reference antagonist, Phoenix #031-22) • 10. Assay buffer: HBSS-20 mM Hepes containing 2.5 mM probenecid and 0.1% BSA (bovine serum albumin); pH 7.4
Stock solutions of compounds (10 mM in 100% DMSO) were provided frozen on dry ice and stored at −80° C. prior to use. […] Assay plates were then prepared by appropriate dilution in assay buffer.
Typical Final Test Concentrations (N=10) for Test Compounds (agonist):
Typical Final Test Concentrations (N=10) for Test Compounds (antagonist):
Cells were maintained in culture as indicated above. The cells were harvested at a confluency of 70-90% the day before the experiment. Growth medium was removed and the cells rinsed briefly with PBS without Ca^+2 and Mg^+2. 0.05% Trypsin was added and the plates incubated at 37° C. for 5 min to detach the cells. DMEM medium supplemented with 10% FBS was added to inactivate the trypsin and determine the cell concentration. The inoculum was adjusted to a final concentration of 200 cells/μL and dispensed at 200 μL per well into a 96-well block plate. The plates were, incubated at 37° C. overnight.
The plates were removed from the incubator and the media removed by inversion of the plates. Calcium-3 dye, 50 μL, was loaded and then incubated for 1 h at 37° C. The plate was again inverted and then 25 μL of assay buffer added. The plates were then transferred to the ImageTrak system for analysis. For agonist testing, after reading for ten (10) sec, 25 μL of 2× test compound or control was injected into the assay plate. Fluorescence was monitored for an additional 50 sec. A reading was taken every two (2) seconds for a total of 30 readings per assay point.
For antagonist testing, after reading for ten (10) sec, 12.5 μL of 3× test compound or control was injected into the assay plate and allowed to react for three (3) min.
Concentration response curves were analyzed using GraphPad Prism (GraphPad Software, San Diego, Calif.) by non-linear regression analysis (sigmoidal dose-response). EC50 values are calculated using GraphPad.
Emax values were calculated using the following formula: […]
Concentration response curves were analyzed using GraphPad Prism (GraphPad Software, San Diego, Calif.) by non-linear regression analysis (sigmoidal dose-response). IC50 values are calculated using GraphPad.
Imax values were calculated using the following formula: […]

[4] = Ghrelin receptor binding activity, Method B1

T3 sequence (Q92847 whole entry): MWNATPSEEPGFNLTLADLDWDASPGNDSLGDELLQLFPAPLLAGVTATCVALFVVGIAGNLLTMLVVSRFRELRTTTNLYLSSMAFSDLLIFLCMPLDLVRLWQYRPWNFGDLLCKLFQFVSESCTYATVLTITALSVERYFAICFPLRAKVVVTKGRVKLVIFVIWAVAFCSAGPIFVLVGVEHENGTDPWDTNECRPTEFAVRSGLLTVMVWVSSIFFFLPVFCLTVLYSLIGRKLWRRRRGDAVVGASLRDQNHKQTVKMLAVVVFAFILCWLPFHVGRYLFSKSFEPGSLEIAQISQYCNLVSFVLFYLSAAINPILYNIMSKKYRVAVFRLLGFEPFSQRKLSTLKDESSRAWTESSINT
T2 sequence (Q92847 whole entry): as above
T1 sequence (Q92847 whole entry): as above

Row | SMILES | IC50 [1, 4] | Antagonist Activity [3] | other results
1 | CC(O)[C@H]1C(=O)N[C@H](Cc2ccccc2)C(=O)NC/C=C/c2ccccc2OCCN[C@@H](C2CCCCC2)C(=O)N1C (stereo partly drawn) [Compound 1304] |  | C (C = 10-100 nM) | Ki [1, 4]: 10 to 100 nM
2 | CCC(C)[C@@H]1NCCOc2ccccc2/C=C/[C@H](C)NC(=O)[C@@H](Cc2ccccc2)NC(=O)[C@H](C(C)O)N(C)C1=O (stereo partly drawn) [Compound 1316] | 10 to 100 nM | D (D = 100-500 nM) | Ki [1, 4]: 10 to 100 nM
3 | CC(O)[C@H]1C(=O)N[C@H](Cc2ccccc2)C(=O)N[C@@H](C)/C=C/c2ccccc2OCCN[C@@H](C2CC2)C(=O)N1C (stereo partly drawn) [Compound 1317] | 10 to 100 nM | C (C = 10-100 nM) | Ki [1, 4]: 1 to 10 nM
4 | CCC(C)[C@@H]1NCCOc2ccccc2/C=C/CNC(=O)[C@@H](Cc2cccs2)NC(=O)[C@H](C(C)O)N(C)C1=O (stereo partly drawn) [Compound 1332] | 100 to 500 nM | D (D = 100-500 nM) | Ki [1, 4]: 10 to 100 nM
5 | CC(C)[C@@H]1NCCOc2ccccc2CC[C@@H](C)NC(=O)[C@@H](Cc2ccc(O)c(Cl)c2)NC(=O)[C@H](C(C)O)N(C)C1=O (stereo partly drawn) [Compound 1383] |  | B (B = 1-10 nM) | 
6 | CCC[C@@H]1NCCOc2ccccc2CC[C@@H](C)NC(=O)[C@@H](Cc2ccccc2)NC(=O)[C@H](C(C)O)N(C)C1=O (stereo partly drawn) [Compound 1394] |  | D (D = 100-500 nM) | 
7 | CC1CCc2ccccc2OCCNC(C(C)C)C(=O)N(C)C(C(C)O)C(=O)NC(Cc2ccccc2O)C(=O)N1 (stereo not drawn) [Compound 1401] |  | B (B = 1-10 nM) | 
8 | CC(C)[C@@H]1NCCOc2ccccc2CC[C@@H](C)NC(=O)[C@@H]([C@H](C)c2ccccc2)NC(=O)[C@H](C(C)O)N(C)C1=O (stereo partly drawn) [Compound 1404] |  | B (B = 1-10 nM) | 
9 | CC1CCc2ccccc2OCCNC(C(C)C)C(=O)N(C)C(C(C)O)C(=O)NC(Cc2c[nH]c3ncccc23)C(=O)N1 (stereo not drawn) [Compound 1408] |  |  | IC50 [2]: 10 to 50 nM
10 | CC(C)[C@@H]1NCCOc2ccc(F)cc2CC[C@@H](C)NC(=O)[C@@H](Cc2ccc(F)cc2)NC(=O)[C@H](C(C)O)N(C)C1=O (stereo partly drawn) [Compound 1436] |  | B (B = 1-10 nM) | 
11 | CC(C)[C@@H]1NCCOc2cc(F)ccc2CC[C@@H](C)NC(=O)[C@@H](Cc2c[nH]c3ccccc23)NC(=O)[C@H](C(C)O)N(C)C1=O (stereo partly drawn) [Compound 1455] |  | B (B = 1-10 nM) | 
12 | CC(C)[C@@H]1NCCOc2cc(F)ccc2CC[C@@H](C)NC(=O)[C@@H](Cc2ccc(F)cc2)NC(=O)[C@H](C(C)O)N(C)C1=O (stereo partly drawn) [Compound 1464] |  | B (B = 1-10 nM) | 
13 | CC(O)[C@H]1C(=O)N[C@H](Cc2ccc(Cl)cc2)C(=O)NC/C=C/c2ccccc2OCCN[C@@H](C2CCCCC2)C(=O)N1C (stereo partly drawn) [Compound 1710] | 10 to 100 nM |  | IC50 [2]: 100 to 500 nM
14 | CC(O)[C@H]1C(=O)N[C@H](Cc2ccc(Cl)cc2)C(=O)NC/C=C/c2ccccc2OCCN[C@@H](C(C)(C)C)C(=O)N1C (stereo partly drawn) [Compound 1768] | 10 to 100 nM |  | IC50 [2]: 10 to 50 nM

Second part, led by results:

Row | IC50 [1, 4] | Antagonist Activity [3] | SMILES | other results
15 | 10 to 100 nM |  | CCC(C)C1NCCOc2ccccc2CC(C)CNC(=O)C(Cc2ccccc2)NC(=O)C(C(C)O)N(C)C1=O (mixture of isomers) [Compound 1338] | Ki [1, 4]: 10 to 100 nM; IC50 [2]: 100 to 500 nM
16 | 10 to 100 nM | C (C = 10-100 nM) | CCC(C)[C@@H]1NCCOc2ccccc2CC[C@H](C)NC(=O)[C@@H](Cc2ccccc2)NC(=O)[C@H](C(C)O)N(C)C1=O (stereo partly drawn) [Compound 1302] | Ki [1, 4]: 1 to 10 nM
17 |  | C (C = 10-100 nM) | CCC(C)[C@@H]1NCCOc2cc(F)ccc2CCCNC(=O)[C@@H](Cc2ccccc2)NC(=O)[C@H](C(C)O)N(C)C1=O (stereo partly drawn) [Compound 1343] | Ki [1]: 1 to 10 nM
18 |  | C (C = 10-100 nM) | CC(C)[C@@H]1NCCOc2ccccc2CC[C@@H](C)NC(=O)[C@@H](Cc2cccnc2)NC(=O)[C@H](C(C)O)N(C)C1=O (stereo partly drawn) [Compound 1384] | 
19 |  | B (B = 1-10 nM) | CC(C)[C@@H]1NCCOc2ccccc2CC[C@@H](C(F)(F)F)NC(=O)[C@@H](Cc2ccccc2)NC(=O)[C@H](C(C)O)N(C)C1=O (stereo partly drawn) [Compound 1402] | 
20 |  | B (B = 1-10 nM) | CC(C)[C@@H]1NCCOc2ccccc2CC[C@@H](C)NC(=O)[C@@H](Cc2cc(F)c(F)c(F)c2)NC(=O)[C@H](C(C)O)N(C)C1=O (stereo partly drawn) [Compound 1411] | 
21 |  | A (A <1 nM) | CC(C)[C@@H]1NCCOc2ccccc2CC[C@@H](C)NC(=O)[C@@H](Cc2csc3ccccc23)NC(=O)[C@H](C(C)O)N(C)C1=O (stereo partly drawn) [Compound 1416] | 
22 |  | C (C = 10-100 nM) | CC(O)[C@H]1C(=O)N[C@H](Cc2c[nH]c3ccccc23)C(=O)N[C@H](C)CCc2cc(F)ccc2OCCN[C@@H](C2CC2)C(=O)N1C (stereo partly drawn) [Compound 1442] | 
23 |  | B (B = 1-10 nM) | COc1cccc(C[C@H]2NC(=O)[C@H](C(C)O)N(C)C(=O)[C@H](C(C)C)NCCOc3cccc(F)c3CC[C@@H](C)NC2=O)c1 (stereo partly drawn) [Compound 1446] | 
24 |  | B (B = 1-10 nM) | CC(C)[C@@H]1NCCOc2cc(F)ccc2CCCNC(=O)[C@@H](Cc2cccc(Cl)c2)NC(=O)[C@H](C(C)O)N(C)C1=O (stereo partly drawn) [Compound 1460] | 
25 | 10 to 100 nM |  | CC(O)[C@H]1C(=O)N[C@H](Cc2ccc(F)cc2)C(=O)N[C@H](C)CCc2ccccc2OCCN[C@@H](C2CCCCC2)C(=O)N1C (stereo partly drawn) [Compound 1743] | IC50 [2]: 100 to 500 nM
26 | 1 to 10 nM |  | CCC(C)C1NCCOc2ccccc2C=CCNC(=O)C(Cc2ccccc2OC)NC(=O)C(C(C)O)N(C)C1=O (stereo not drawn) [Compound 1795] | IC50 [2]: 100 to 500 nM
